The nature of series [1]: Drug loading of freeze-dried foam (disintegration of foam discs and quantification). In kind it is physicochemical. The conditions noted are these: for Loading efficiency (%): mean ± standard deviation. The protocol:
The samples were incubated for 3 h at 37° C. and aliquots of 100 μL were withdrawn from each of the diffusion cells at specific time points and replenished with 100 μL warm (37° C.) hHBSS. The exact peptide dose was determined by disintegrating a 10 mm foam disc of known weight in 1 mL water for at least 1 h at RT. All samples were centrifuged (10,000 rpm/9279×g, 10 min, 4° C.) and the concentration of desmopressin in the supernatant was determined by reversed phase high performance liquid chromatography with UV detection (RP-HPLC-UV). Discs (10 mm in diameter) of NFF multilayered DDS were fixed in Ussing chamber […] […] 2 mL warm (37° C.) hHBSS without BSA pH 6.8 was added to each side of the sample. The samples were incubated for 3 h at 37° C. and aliquots of 100 μL were withdrawn from each of the diffusion cells at specific time points and replenished with 100 μl warm (37° C.) hHBSS without BSA pH 6.8.

Series [2] relates to C. albicans. Particulars: Huang et al., 2020; cited from earlier work.
The conditions of series [3]: Huang et al., 2020, cited from earlier work.
[4] abbreviates: drug loaded in foam, desmopressin at theoretical loading 29.13 μg/mg.

Values after ≈ are worked out from the molar mass of the structure shown.

For `NC(=O)CC[C@@H]1NC(=O)[C@H](Cc2ccccc2)NC(=O)[C@H](Cc2ccc(O)cc2)NC(=O)CCSSC[C@@H](C(=O)N2CCC[C@H]2C(=O)N[C@H](CCCN=C(N)N)C(=O)NCC(N)=O)NC(=O)[C@H](CC(N)=O)NC1=O` [Desmopressin], the figures for the “Loading efficiency (%)” value in series [1] (desmopressin at theoretical loading 107.17 μg/mg) and in series [1] (setting [4]) were 117 ± 1% and 97 ± 1%, respectively. In addition, in series [1] (foam of NFF, discs of 10 mm), the “specific loading of desmopressin” value is 28.2±0.2 μg per mg of foam.
In the case of `Clc1ccccc1C(c1ccccc1)(c1ccccc1)n1ccnc1` [Clotrimazole], the “Loading efficiency (%)” value in series [1] (setting [4]) was 110 ± 2%. Moreover, in series [2], the “minimal fungicidal concentration (MFC)” value was 4 µg/mL (≈ 11.6 µM) and the “minimal inhibitory concentration (MIC)” value was 1 µg/mL (≈ 2.9 µM). Further, the Log P – broadly, a log measure of how a compound divides between an organic and an aqueous phase – in series [3] was 6.3. Also, the aqueous solubility (commonly the dissolved amount per volume that the medium holds) in series [3] (in water) was 0.49 µg/mL (≈ 1.42 µM).

The values are drawn from patent US20240180998A1, “MULTILAYERED PATCH” (KØBENHAVNS UNIVERSITET, priority 2021, published 2024).
